From paper PMC8745505, “In Vitro Investigation of Binding Interactions between Albumin–Gliclazide Model and Typical Hypotensive Drugs” (International Journal of Molecular Sciences, 2021)
“And” between values parts separate entries of the source, which are not always exact repeats. Identical values can stand only once. Counter-ions that a name gives are not always drawn. Like-named read-outs stand apart in the source and are kept apart here. Each block holds one compound with its values, some of them ahead of it.

What was measured:
[1] = test system: plasma protein; conditions: cited from earlier work; for Binding to plasma protein: general statement, no reference given
[2] = molecular target: T1, bovine serum albumin (BSA) (Bos taurus, UniProt P02769)
Procedure: (§1) Bovine serum albumin (≥96%) was used to prepare 1.2 mM stock solution in PBS (pH 7.4). […] The concentration of BSA was controlled by the spectrophotometric method at 280 nm (with a molar coefficient of 43,824 cm^−1 M^−1). […] Simultaneously, a control sample containing BSA solution without any ligands was prepared. Measurements were performed in triplicate. All reagents were received from Sigma-Aldrich (St. Luis, MO, USA).
The thermodynamic analysis of the interaction between albumin and GLICL was performed on measurements at three temperatures (298, 303, 310 K) based on the van’t Hoff Equations (4)–(6):(4) ΔG=−R·T·lnKa (5) ΔG=ΔH−T·ΔS (6) lnKa=−ΔH/R·T+ΔS/R where ΔG is the free energy change, ΔH is the enthalpy change, ΔS is the entropy change, R is the universal gas constant, and T is the temperature.

[3] = molecular target: T1, bovine serum albumin (BSA); remark: listed apart in the source
Procedure: as §1
The circular dichroism spectra data were recorded using JASCO J-1500 spectropolarimeter (Tokyo, Japan) in the range of 205–250 nm, with a scanning speed of 200 nm/min and with 0.1 step resolution using a quartz cuvette with a length path of 0.1 cm. The measurements were conducted for binary (BSA–DRUG) and ternary (BSA–DRUG–GLICL) models to provide information about the influence of ligand binding on the protein structure. The baseline was corrected using a phosphate buffer, pH = 7.4.
Mean residue ellipticity (MRE) was calculated according to the following Equation (7) and expressed in deg cm^2 dmol^−1:(7) MRE=Θobs/cp·n·l·10 where Θobs is the observed CD (in mdegree), Cp is the molar concentration of BSA, n is the number of amino acid residues (583 for BSA), and l is the path length of the cuvette (0.1 cm).
The α-helical contents of free and modified BSA were calculated from MRE values at 208 nm with Equation (8):(8) α-helix (%)=MRE208−4000/33,000−4000 ·100 where MRE208 is the observed MRE value at 208 nm, 4000 is the MRE of the β-form and random coil conformation cross at 208 nm, and 33,000 is the MRE value of the pure α-helix of BSA at 208 nm.

[4] = molecular target: T1, bovine serum albumin (BSA); conditions: for Stern–Volmer quenching constant KSV: GLICL as quencher 0–14 µM, DRUG 8 µM (DRUG:BSA 4:1), λex 280 nm
Procedure: as §1
Fluorescence intensities of ternary models (BSA–DRUG–GLICL) were recorded using a Jasco FP-8200 spectrofluorometer with Peltier-thermo Cell Holder ETC-814 (Tokyo, Japan) at excitation wavelength of 280 nm, equipped with 1.0 cm quartz cells. The slit widths were set at 5 nm. The measurements were conducted at two different temperatures, 298 and 310 K. The fluorescence spectra of the drugs alone were also recorded. Each spectrum background was corrected by subtracting the spectrum of the phosphate buffer as a blank sample.
According to the assumption that fluorophores in a protein molecule may differ in accessibility, modified Stern–Volmer Equation (2) was used for the construction of plots and to calculate quenching constants:(2) F0/F0−F=1/fa·KSV·Q+1/fa where F0 and F are the fluorescence intensities in the absence and presence of gliclazide (GLICL), respectively; fa is the fraction of the initial fluorescence accessible to the quencher; Ksv is the Stern–Volmer quenching constant; and Q is the concentration of the quencher (GLICL).
The binding parameters (binding constant and number of binding sites) were obtained from double-log modified Stern–Volmer Equation (3):(3) logF0−F/F=logKa+n·logQ where F0 and F are the fluorescence intensities in the absence and presence of the quencher (gliclazide), respectively; Ka is the binding constant of the complex BSA–DRUG–GLICL, expressed as M^−1; n is the number of bound gliclazide molecules; and Q is the concentration of the quencher (GLICL).

[5] = test system: albumin; conditions: cited from earlier work
[6] = test system: BSA; parameters: method as in PMID 28888191; conditions: no additional ligand, cited from earlier work
[7] = BSA–GLICL complex in presence of DRUG, 298 303 310 K

T1 sequence (P02769 25-607): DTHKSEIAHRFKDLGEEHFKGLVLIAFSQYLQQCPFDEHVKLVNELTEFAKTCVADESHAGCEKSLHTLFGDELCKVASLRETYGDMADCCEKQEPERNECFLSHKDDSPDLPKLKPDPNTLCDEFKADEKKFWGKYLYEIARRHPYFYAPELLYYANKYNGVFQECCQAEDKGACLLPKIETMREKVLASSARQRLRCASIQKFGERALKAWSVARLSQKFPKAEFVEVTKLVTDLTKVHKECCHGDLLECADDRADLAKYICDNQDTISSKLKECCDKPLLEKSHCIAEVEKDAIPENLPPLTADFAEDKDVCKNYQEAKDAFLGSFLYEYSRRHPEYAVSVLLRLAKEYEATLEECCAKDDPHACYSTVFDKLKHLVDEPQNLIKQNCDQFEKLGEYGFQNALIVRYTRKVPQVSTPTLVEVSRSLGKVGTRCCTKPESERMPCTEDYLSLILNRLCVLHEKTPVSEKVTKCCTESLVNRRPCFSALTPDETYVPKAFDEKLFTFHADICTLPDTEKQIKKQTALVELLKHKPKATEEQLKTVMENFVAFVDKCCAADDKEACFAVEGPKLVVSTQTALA

SMILES: CCOC(=O)C1=C(COCCN)NC(C)=C(C(=O)OC)C1c1ccccc1Cl (stereo not drawn) [AML, amlodipine besylate]
- Binding to plasma protein [1]: over 95%
- ΔS [2]: 100.32 J/mol K
- Decreased α-Helix (%) [3]: 0.7%
- Ka, association constant of BSA–GLICL complex in presence of DRUG [4]: 1.15 ± 0.01 10^4 M^−1
- n, number of binding sites (bound gliclazide molecules) [4]: 0.93 ± 0.01 and 0.97 ± 0.01

SMILES: CC(C)NCC(O)COc1ccc(CC(N)=O)cc1 (stereo not drawn) [ATN, atenolol]
- Association constant, site 1 of albumin [5]: approx. 10^3 M^−1

- ΔG [2]: -21.80 kJ/mol
- ΔH [2]: 100.10 kJ/mol
- ΔS [2]: 393.25 J/mol K
- Decreased α-Helix (%) [3]: 1.0% and 3.5%
- α-Helix Content (%) [3]: 67.7% and 65.2%
- Ka, association constant of BSA–GLICL complex in presence of DRUG [4]: 0.12 ± 0.04 10^4 M^−1
- Mechanism of quenching of BSA fluorescence by GLICL in presence of DRUG [4]: static mechanism
- n, number of binding sites (bound gliclazide molecules) [4]: 0.87 ± 0.01 and 0.74 ± 0.02
SMILES: CCCCC(=O)N(Cc1ccc(-c2ccccc2-c2nnn[nH]2)cc1)[C@H](C(=O)O)C(C)C [VAL, valsartan]
- Protein binding [1]: 95%

SMILES: Cc1ccc(S(=O)(=O)NC(=O)NN2CC3CCCC3C2)cc1 (stereo not drawn) [GLICL, gliclazide]
- Plasma protein binding [1]: up to 94%
- Ka of BSA–GLICL (binary model) ([6]; 298 K): 3.80 10^4 M^−1
- Ka of BSA–GLICL (binary model) ([6]; 310 K): 3.76 10^4 M^−1

- ΔH [2, 7]: 15.08 kJ/mol
- ΔS [2, 7]: 131.36 J/mol K
- ΔG ([2]; BSA–GLICL complex in presence of DRUG, 298 K): -24.07 kJ/mol
- ΔG ([2]; BSA–GLICL complex in presence of DRUG, 303 K): -24.72 kJ/mol
- ΔG ([2]; BSA–GLICL complex in presence of DRUG, 310 K): -25.64 kJ/mol
- α-Helix Content (%) ([3]; binary BSA–DRUG, molar ratio 1:4, 310 K (BSA alone 68.7)): 67.6%
- Decreased α-Helix (%) ([3]; binary BSA–DRUG, molar ratio 1:4, 310 K, vs BSA alone): 1.1%
- α-Helix Content (%) ([3]; ternary BSA–DRUG–GLICL, BSA:Ligand 1:4, BSA:GLICL 1:7, 310 K (BSA alone 68.7)): 63.1%
- Decreased α-Helix (%) ([3]; ternary BSA–DRUG–GLICL, BSA:Ligand 1:4, BSA:GLICL 1:7, 310 K, vs BSA alone): 5.6%
- n, number of binding sites (bound gliclazide molecules) ([4]; BSA–DRUG–GLICL, 298 K): 1.04 ± 0.01
- n, number of binding sites (bound gliclazide molecules) ([4]; BSA–DRUG–GLICL, 310 K): 1.03 ± 0.03
- Ka, association constant of BSA–GLICL complex in presence of DRUG ([4]; BSA–DRUG–GLICL, DRUG:BSA 4:1, 298 K): 1.65 ± 0.02 10^4 M^−1
- Ka, association constant of BSA–GLICL complex in presence of DRUG ([4]; BSA–DRUG–GLICL, DRUG:BSA 4:1, 310 K): 2.09 ± 0.07 10^4 M^−1
- Stern–Volmer quenching constant KSV ([4]; BSA–DRUG–GLICL, 298 K): 2.23 ± 0.01 10^4 M^−1
- Stern–Volmer quenching constant KSV ([4]; BSA–DRUG–GLICL, 310 K): 0.96 ± 0.16 10^4 M^−1
- Mechanism of quenching of BSA fluorescence by GLICL in presence of DRUG ([4]; from temperature dependence of KSV, 298 vs 310 K): static mechanism
- Change of Ka of BSA–GLICL complex in comparison to the binary model ([4]; ternary vs binary model (binary Ka from ref 24)): more than a twofold decrease
SMILES: CCOC(=O)[C@H](CCc1ccccc1)N[C@@H](C)C(=O)N1Cc2ccccc2C[C@H]1C(=O)O [QUI, quinapril hydrochloride]
- Binding to plasma protein [1]: over 95%
